Source: patent US12037333B2, “Pyridopyrazine and pyridotriazine inhibitors of influenza virus replication” (priority 2018, dated 2024)

test system: Influenza type B (cell culture adapted strain B/Lee/40, ATCC VR-1535); test: Influenza antiviral assay: inhibition of virus-induced cytopathic effects (CPE) in MDCK cells, XTT dye reduction; type: cell-based; conditions: Influenza B virus, MDCK, 96 h, strain B/Lee/40, MDCK cells, CPE inhibition at 4 days

Row | SMILES | EC50
1 | O=C1c2c(O)c(=O)ccn2N(C23c4ccccc4CC2Cc2cc(F)c(F)cc23)CN1CCc1ccc(F)cc1 (stereo not drawn) [Compound A29, 1-(2,3-difluoro-9a,10-dihydroindeno[1,2-a]inden-4b(9H)-yl)-3-(4-fluorophenethyl)-5-hydroxy-2,3-dihydro-1H-pyrido[2,1-f][1,2,4]triazine-4,6-dione] | 0.25 to 0.375 µM
2 | O=C1c2c(O)c(=O)ccn2N(C23c4ccccc4CC2Cc2c(Cl)cccc23)CN1CC1CC1 (stereo not drawn) [Compound A108] | 0.25 to 0.375 µM
3 | CN1CN(C23c4ccccc4CC2(C)Cc2c3ccc(F)c2F)n2ccc(=O)c(O)c2C1=O (stereo not drawn) [Compound A165] | < 0.125 µM
4 | CN1C(=O)c2c(O)c(=O)ccn2N(C23c4cccc(F)c4CC2Cc2c(F)cccc23)C1CO (stereo not drawn) [Compound A59] | < 0.125 µM
5 | O=C1c2c(O)c(=O)ccn2N(C23c4cccc(F)c4CC2Cc2c(F)cccc23)CN1CC(F)F (stereo not drawn) [Compound A71] | < 0.125 µM
6 | CCN1CN(C23c4ccccc4CC2(C)Cc2ccccc23)n2ccc(=O)c(O)c2C1=O (stereo not drawn) [Compound A147] | 0.125 to 0.25 µM
7 | CN1CN(C23c4ccccc4CC2Cc2c3ccc(Cl)c2Cl)n2ccc(=O)c(O)c2C1=O (stereo not drawn) [Compound A146] | 0.125 to 0.25 µM
8 | CC(C)CN1C(=O)c2c(O)c(=O)ccn2N(C23c4ccccc4CC2Cc2c3ccc(F)c2F)C1C (stereo not drawn) [Compound A127] | 0.25 to 0.375 µM
9 | O=C1c2c(O)c(=O)ccn2N(C23c4cccc(F)c4CC2Cc2c(F)cccc23)CN1CC1CCCCO1 (stereo not drawn) [Compound A130] | 0.125 to 0.25 µM
10 | CN1CN(C23c4cc(F)ccc4CC2Cc2c(Cl)cccc23)n2ccc(=O)c(O)c2C1=O (stereo not drawn) [Compound A96] | < 0.125 µM
11 | O=C1c2c(O)c(=O)ccn2N(C23c4ccccc4CC2Cc2cc(F)c(F)cc23)CN1CCc1ccccc1 (stereo not drawn) [Compound A22, 1-(2,3-difluoro-9a,10-dihydroindeno[1,2-a]inden-4b(9H)-yl)-5-hydroxy-3-phenethyl-2,3-dihydro-1H-pyrido[2,1-f][1,2,4]triazine-4,6-dione] | < 0.125 µM
12 | O=C1c2c(O)c(=O)ccn2N(C23c4ccccc4CC2Cc2ccccc23)CN1CC1CC1 (stereo not drawn) [Compound A2, 3-Cyclopropylmethyl-1-(9a,10-dihydro-9H-indeno[1,2-a]inden-4b-yl)-5-hydroxy-2,3-dihydro-1H-pyrido[2,1-f][1,2,4]triazine-4,6-dione] | > 0.5 µM
13 | CCN1CN(C23c4ccccc4CC2(OC)Cc2ccccc23)n2ccc(=O)c(O)c2C1=O (stereo not drawn) [Compound A152] | 0.125 to 0.25 µM
14 | O=C1c2c(O)c(=O)ccn2N(C23c4ccccc4CC2Cc2c3ccc(F)c2F)CN1C1CCC1 (stereo not drawn) [Compound A92, 3-Cyclobutyl-1-(1,2-difluoro-9a,10-dihydroindeno[1,2-a]inden-4b(9H)-yl)-5-hydroxy-2,3-dihydro-1H-pyrido[2,1-f][1,2,4]triazine-4,6-dione] | 0.25 to 0.375 µM
15 | CCN1CN(C23c4ccccc4CC2(C)Cc2cc(F)ccc23)n2ccc(=O)c(O)c2C1=O (stereo not drawn) [Compound A116] | < 0.125 µM
16 | O=C1c2c(O)c(=O)ccn2N(C23c4ccccc4CC2Cc2c3ccc(F)c2F)CN1C1CC1 (stereo not drawn) [Compound A61] | < 0.125 µM
17 | CN1C(=O)c2c(O)c(=O)ccn2N(C23C(=Cc4c(F)cccc42)Cc2c(F)cccc23)C1CN (stereo not drawn) [Compound A106, 2-(aminomethyl)-1-(1,8-difluoroindeno[1,2-a]inden-4b(9H)-yl)-5-hydroxy-3-methyl-2,3-dihydro-1H-pyrido[2,1-f][1,2,4]triazine-4,6-dione] | < 0.125 µM
18 | CC1N(C)C(=O)c2c(O)c(=O)ccn2N1C12c3ccccc3CC1Cc1c2ccc(F)c1F (stereo not drawn) [Compound A64] | < 0.125 µM

Row | SMILES | EC50
19 | CN1CN(C23c4ccccc4CC2Cc2cc(F)c(F)cc23)n2ccc(=O)c(O)c2C1=O (stereo not drawn) [Compound A19, 1-(2,3-difluoro-9a,10-dihydroindeno[1,2-a]inden-4b(9H)-yl)-5-hydroxy-3-methyl-2,3-dihydro-1H-pyrido[2,1-f][1,2,4]triazine-4,6-dione] | 0.25 to 0.375 µM
20 | O=C1c2c(O)c(=O)ccn2N(C23c4ccccc4CC2Cc2c3ccc(F)c2F)CN1CC1CCCCC1 (stereo not drawn) [Compound A99] | 0.25 to 0.375 µM
21 | CN1CN(C23c4cccc(F)c4CC2(C)Cc2c(F)cccc23)n2ccc(=O)c(O)c2C1=O (stereo not drawn) [Compound A54] | < 0.125 µM
22 | CCN1CN(C23c4ccccc4CC2Cc2c3ccc(C)c2F)n2ccc(=O)c(O)c2C1=O (stereo not drawn) [Compound A98] | < 0.125 µM
23 | O=C1c2c(O)c(=O)ccn2N(C23c4ccccc4CC2Cc2c(F)cccc23)CN1C1CC1 (stereo not drawn) [Compound A65] | < 0.125 µM
24 | O=C1c2c(O)c(=O)ccn2N(C23c4ccccc4CC2Cc2cc(F)c(F)cc23)CN1CCc1cccc(F)c1 (stereo not drawn) [Compound A28, 1-(2,3-difluoro-9a,10-dihydroindeno[1,2-a]inden-4b(9H)-yl)-3-(3-fluorophenethyl)-5-hydroxy-2,3-dihydro-1H-pyrido[2,1-f][1,2,4]triazine-4,6-dione] | 0.25 to 0.375 µM
25 | CCN1CN(C23c4ccccc4CC2Cc2c3ccc(Cl)c2Cl)n2ccc(=O)c(O)c2C1=O (stereo not drawn) [Compound A161] | < 0.125 µM
26 | O=C1c2c(O)c(=O)ccn2N(C23c4ccccc4CC2Cc2c3ccc(F)c2F)CN1CC1CCOCC1 (stereo not drawn) [Compound A15, 1-(1,2-Difluoro-9a,10-dihydro-9H-indeno[1,2-a]inden-4b-yl)-5-hydroxy-3-(tetrahydro-pyran-4-ylmethyl)-2,3-dihydro-1H-pyrido[2,1-f][1,2,4]triazine-4,6-dione] | < 0.125 µM
27 | O=C1c2c(O)c(=O)ccn2N(C23c4ccccc4CC2Cc2cc(F)c(F)cc23)CN1CC1CC1 (stereo not drawn) [Compound A13, 3-Cyclopropylmethyl-1-(2,3-difluoro-9a,10-dihydro-9H-indeno[1,2-a]inden-4b-yl)-5-hydroxy-2,3-dihydro-1H-pyrido[2,1-f][1,2,4]triazine-4,6-dione] | < 0.125 µM
28 | O=C1c2c(O)c(=O)ccn2N(C23c4ccccc4CC2Cc2c(Cl)cccc23)CN1CC(F)F (stereo not drawn) [Compound A105] | < 0.125 µM
29 | O=C1c2c(O)c(=O)ccn2N(C23c4ccccc4CC2Cc2c(F)cccc23)CN1CCc1ccccc1 (stereo not drawn) [Compound A87] | < 0.125 µM
30 | CCN1C(=O)c2c(O)c(=O)ccn2N(C23c4ccccc4CC2Cc2c(Cl)cccc23)C1C (stereo not drawn) [Compound A95] | < 0.125 µM
31 | O=C1c2c(O)c(=O)ccn2N(C23c4ccccc4CC2Cc2ccccc23)CN1Cc1cccc(Cl)c1F (stereo not drawn) [Compound A31, 3-(3-chloro-2-fluorobenzyl)-1-(9a,10-dihydroindeno[1,2-a]inden-4b(9H)-yl)-5-hydroxy-2,3-dihydro-1H-pyrido[2,1-f][1,2,4]triazine-4,6-dione] | 0.375 to 0.5 µM
32 | O=C1c2c(O)c(=O)ccn2N(C23c4ccccc4CC2Cc2c3ccc(F)c2F)CN1Cc1ccc(F)cc1 (stereo not drawn) [Compound A17, 1-(1,2-Difluoro-9a,10-dihydro-9H-indeno[1,2-a]inden-4b-yl)-3-(4-fluoro-benzyl)-5-hydroxy-2,3-dihydro-1H-pyrido[2,1-f][1,2,4]triazine-4,6-dione] | 0.125 to 0.25 µM
33 | Cc1c(F)ccc2c1CC1Cc3ccccc3C21N1CN(C)C(=O)c2c(O)c(=O)ccn21 (stereo not drawn) [Compound A78] | < 0.125 µM
34 | COCCN1C(=O)c2c(O)c(=O)ccn2N(C23c4ccccc4CC2Cc2c3ccc(F)c2F)C1C (stereo not drawn) [Compound A113] | 0.125 to 0.25 µM
35 | O=C1c2c(O)c(=O)ccn2N(C23c4ccccc4CC2Cc2c(Cl)cccc23)CN1C1CC1 (stereo not drawn) [Compound A93] | 0.125 to 0.25 µM

same assay, conditions: strain B/Lee/40, MDCK cells, CPE inhibition at 4 days

Row | SMILES | EC50
36 | O=C1c2c(O)c(=O)ccn2N(C23c4ccccc4CC2Cc2c(Cl)cccc23)CN1CCF (stereo not drawn) [Compound A114] | 0.125 to 0.25 µM
